Experiment [1] concerns modified PQQGDH. Kind of experiment: Maltose activity of glucose electrode loaded with modified PQQGDH (oxidation current, potassium ferricyanide mediator). Format: biochemical, Acinetobacter baumannii strain NCIMB11517. As to conditions: for Maltose Activity (%): solute 50 mM, pH 5.5, glucose or maltose 4 mM, 0.1 M potassium ferricyanide, +0.35 V, 25° C.; for Maltose Activity of Glucose Electrode: 50 mM solvent, 1 mM calcium chloride, 0.1% Triton X-100. The method, then:
0.5 g of carbon graphite were placed in a mortar followed by the addition of 0.3 ml of liquid paraffin and kneading with a pestle for 30 minutes to produce a carbon paste. The resulting carbon paste was spread onto a platinum electrode followed by the addition of 10 μl of the modified PQQGDH solution (2,000 U/ml) produced in Example 2 and air drying for 30 minutes at room temperature. A cut cellulose semi-permeable membrane (molecular weight: 8,000) was placed over the dried enzyme electrode and the semi-permeable membrane was immobilized with plastic O-rings. The glucose electrode produced in this manner was then used after preliminarily immersing in the cold reaction solvent for 30 minutes.
The substances listed in Table 1 were used as solutes, and buffers were respectively prepared having a final concentration of 50 mM (pH 5.5). Each of the solvents contained an activator/stabilizer in the form of calcium chloride at 1 mM and surfactant in the form of 0.1% Triton X-100 in addition to the solute listed in Table 1. Potassium ferricyanide was dissolved in each of the produced solvents to a concentration of 0.1 M to prepare reaction solutions.
50 mM phosphoric acid or pimeric acid solution containing 1 mM calcium chloride and 0.1% Triton X-100 (consisting of three types having pH values of 5.0, 6.0 and 7.0, respectively) were prepared. Maltose activity of the glucose electrode was investigated for each according to the method of Example 5.

Experiment [2] relates to modified PQQGDH. Kind of experiment: Substrate specificity using glucose assay system (ferricyanide reduction, absorbance 420 nm). The format is biochemical. The conditions noted are these: for activity with respect to maltose compared with the control (in words): substrate concentration of 4.8 mM, in some cases. As for the experimental part: D-glucose+ferricyanide ion+PQQGDH D-glucono-1,5-lactone+ferrocyanide ion
Specificity to each substrate can be determined by changing D-glucose to other saccharides. The presence of the ferrocyanide ion produced by reduction of the ferricyanide ion was confirmed by measuring the decrease of absorbance at a wavelength of 420 nm by spectrophotometry.
A. […]
B. Potassium ferricyanide solution: 50 mM (0.165 g potassium ferricyanide (molecular weight: 329.25) dissolved in 10 ml of distilled water)
C. PQQGDH solution: 31000 U/ml (approx. 128 mg PQQGDH (Toyobo: GLD-331) dissolved in 5 ml of distilled water)
D. Substrate solution (D-glucose solution or maltose solution): 100 or 400 mM
• 1. The following reaction mixture was prepared in a light shielding bottle, and stored on ice (prepared at use). 48.2 mL of each buffer solution (pH6.5) (A) • 4.0 mL of potassium ferricyanide solution (B) • 0.19 mL of (C) • 2. 2.65 ml of the reaction mixture and 0.3 ml of additive were placed in a test tube (plastic) and pre-warmed for 5 minutes at 37° C. • 3. 0.15 ml of substrate solution (D) were added and mixed gently. • 4. The reduction in the absorbance relative to water at 420 nm was recorded for 1 to 3 minutes with a spectrophotometer while maintaining at a temperature of 37° C., and the ΔOD per minute was calculated from the initial linear portion of the curve (ΔOD test). At the same time, the same procedure was carried out with the exception of adding distilled water instead of glucose solution followed by measurement of the blank (ΔOD blank).
The above-mentioned procedure was carried out at each of the predetermined concentrations shown in Tables 1 to 3 using as additives succinic acid, adipic acid, suberic acid, pimeric acid, potassium chloride, ammonium chloride, diammonium hydrogen citrate, malonic acid, L-lysine, taurine, 3,3-dimethylglutaric acid, malic acid, glutaric acid, calcium glycerate, amino-n-butyric acid, sodium glycolate, sodium α-ketoglutarate, fumaric acid, glycerin, glutamic acid and serine. And the procedure was also carried out for those not containing additives to assess the effects of additives.
Variation in absorbance per unit time was determined by calculating ΔOD/min(ΔOD test−ΔOD blank)
To evaluate whether activity had declined with respect to sugars other than glucose, the ΔOD/min (a) with D-glucose as the substrate solution and the ΔOD/min (b) with the other sugar in place of D-glucose as the substrate solution were measured, and the relative value ((b)/(a)×100) was calculated given 100 as the measurement value with glucose as the substrate.
In each of Tables 3 to 5, in the case the value of the ratio of measured values of maltose and glucose (maltose/glucose) relative to the control (control: no addition) is small, activity with respect to maltose during glucose measurement decreases.

For experiment [3], the system named is modified PQQGDH. The description is as above. The format is biochemical. As to conditions: potassium phosphate buffer pH 7.0.
[4] abbreviates: glutaric acid buffer pH 7.0, reagent 1%, substrate 4.8 mM, control 0.86.
Setting [5] is: glutaric acid buffer pH 7.0, reagent 1%, substrate 19.2 mM, control 0.94.
Setting [6] is: phthalic acid buffer pH 7.0, reagent 0.5%, substrate 4.8 mM, control 0.72.
Where [7] appears, read: phthalic acid buffer pH 7.0, reagent 0.5%, substrate 19.2 mM, control 0.75.
Where [8] appears, read: phthalic acid buffer pH 7.0, reagent 1%, substrate 4.8 mM, control 0.72.
Setting [9] is: phthalic acid buffer pH 7.0, reagent 1%, substrate 19.2 mM, control 0.75.
[10] abbreviates: phthalic acid buffer pH 7.0, reagent 2%, substrate 4.8 mM, control 0.72.
The mark [11] stands for this setting: phthalic acid buffer pH 7.0, reagent 2%, substrate 19.2 mM, control 0.75.
Where [12] appears, read: glutaric acid buffer pH 7.0, reagent 0.1%, substrate 4.8 mM, control 0.86.
Where [13] appears, read: glutaric acid buffer pH 7.0, reagent 0.1%, substrate 19.2 mM, control 0.94.
Setting [14] is: potassium phosphate buffer pH 7.0, reagent 0.5%, substrate 19.2 mM, control 0.93.
Setting [15] is: potassium phosphate buffer pH 7.0, reagent 1%, substrate 19.2 mM, control 0.93.
Setting [16] is: reagent 0.5%, substrate 4.8 mM, control 0.85.
Setting [17] is: reagent 1%, substrate 4.8 mM, control 0.85.
The mark [18] stands for this setting: reagent 2%, substrate 4.8 mM, control 0.85.
[19] abbreviates: reagent 2%, substrate 19.2 mM, control 0.93.

Take `O=C(O)CC(=O)O` [Malonic acid]: in experiment [1], the “Maltose Activity (%)” value was 23.2%. Also, the Maltose/glucose ratio in experiment [2] (setting [4]) worked out at 0.68; in experiment [2] (setting [5]), 0.84; in experiment [2] (setting [6]), 0.74; in experiment [2] (setting [7]), 0.58; in experiment [2] (setting [8]), 0.77; in experiment [2] (setting [9]), 0.57. In addition, the values for the Maltose/glucose ratio in experiment [2] (setting [10]) and in experiment [2] (setting [11]) were 0.82 and 0.63, respectively. Moreover, the “activity with respect to maltose compared with the control (in words)” value in experiment [2] was “did not decrease”.
On to `O=C(O)/C=C/C(=O)O` [Fumaric acid], for which the Maltose/glucose ratio was 0.68 in experiment [2] (setting [4]) and 0.88 in experiment [2] (setting [5]).
Take `O=C(O)CCC(=O)C(=O)O` [2-ketoglutaric acid]: the “Maltose Activity (%)” value in experiment [1] worked out at 19.3%.
For `CC(=O)O` [Acetic acid, reference compound], in experiment [1], the “Maltose Activity (%)” value was determined as 35.5%.
With `N[C@@H](CO)C(=O)O` [L-serine], the Maltose/glucose ratio in experiment [2] (setting [4]) is on record as 0.73; in experiment [2] (setting [5]) it was 0.87.
Regarding `O=C([O-])C(O)CO.O=C([O-])C(O)CO.[Ca+2]` (racemic) [Calcium DL-glycerate], the Maltose/glucose ratio in experiment [2] (glutaric acid buffer pH 7.0, reagent 0.33%, substrate 4.8 mM, control 0.86) amounted to 0.60; in experiment [2] (glutaric acid buffer pH 7.0, reagent 0.33%, substrate 19.2 mM, control 0.94) it was 0.82.
`O=C([O-])CO.[Na+]` [sodium glycolate]: the Maltose/glucose ratio in experiment [2] (setting [4]) worked out at 0.77; in experiment [2] (setting [5]), 0.92.
In the same order, the values of `NCC(=O)O` [Glycine] are 0.76 and 0.93.
Turning to `O=P(O)(O)O` [Phosphoric acid, reference compound], the “Maltose Activity of Glucose Electrode” value in experiment [1] (pH 5.0) turned out to be 23.7%; in experiment [1] (pH 6.0), 36.8%; in experiment [1] (pH 7.0) it was 50.8%. Besides, the “Maltose Activity (%)” value in experiment [1] is 28.0%.
With `O=S(=O)(O)CCN1CCOCC1` [MES, reference compound], the “Maltose Activity (%)” value in experiment [1] was 29.6%.
In the case of `N.N.O=C(O)CC(O)(CC(=O)O)C(=O)O` [Diammonium hydrogen citrate], the Maltose/glucose ratio is reported as 0.78 in experiment [2] (setting [12]); 0.90 in experiment [2] (setting [13]); 0.59 in experiment [2] (setting [4]); 0.82 in experiment [2] (setting [5]); 0.79 in experiment [2] (setting [6]); 0.55 in experiment [2] (setting [7]). In addition, the Maltose/glucose ratio in experiment [2] (setting [8]) came out at 0.80; in experiment [2] (setting [9]) it was 0.70; in experiment [2] (setting [10]), 0.89; in experiment [2] (setting [11]) it was 0.63; in experiment [2] (setting [14]) it was 0.88; in experiment [2] (setting [15]), 0.76. Moreover, the Maltose/glucose ratio in experiment [3] (setting [16]) is 0.64; in experiment [3] (setting [17]), 0.52; in experiment [3] (setting [18]) it was 0.36; in experiment [3] (setting [19]) it was 0.54. For the same compound, the “activity with respect to maltose compared with the control (in words)” value in experiment [2] is reported as “did not decrease”.
In the case of `N[C@H](CCC(=O)O)C(=O)O` [D-glutamic acid], the figures for the Maltose/glucose ratio in experiment [2] (setting [12]) and in experiment [2] (setting [13]) were 0.73 and 0.89, respectively.
As to `Cl.NCCCC[C@H](N)C(=O)O` [L-lysine hydrochloride], the Maltose/glucose ratio in experiment [2] (setting [4]) is 0.65; in experiment [2] (setting [5]), 0.87; in experiment [2] (setting [6]), 0.62; in experiment [2] (setting [7]), 0.64; in experiment [2] (setting [8]) it was 0.61; in experiment [2] (setting [9]), 0.58. The Maltose/glucose ratio in experiment [2] (setting [10]) came out at 0.59; in experiment [2] (setting [11]) it was 0.50; in experiment [2] (setting [14]), 0.91; in experiment [2] (setting [15]), 0.93; in experiment [3] (setting [16]) it was 0.78; in experiment [3] (setting [17]) it was 0.71. The Maltose/glucose ratio is on record as 0.66 in experiment [3] (setting [18]) and 0.85 in experiment [3] (setting [19]).
Regarding `O=C(O)c1ccccc1C(=O)O` [Phthalic acid], the “Maltose Activity (%)” value in experiment [1] was 4.9%.
For `Cl.N` [Ammonium chloride], the Maltose/glucose ratio in experiment [2] (setting [4]) worked out at 0.56; in experiment [2] (setting [5]), 0.71; in experiment [2] (setting [6]) it was 0.60; in experiment [2] (setting [7]), 0.67; in experiment [2] (setting [8]), 0.57; in experiment [2] (setting [9]), 0.59. The Maltose/glucose ratio in experiment [2] (setting [10]) came to 0.52; in experiment [2] (setting [11]), 0.52; in experiment [2] (setting [14]), 0.91; in experiment [2] (setting [15]), 0.84; in experiment [3] (setting [16]), 0.72; in experiment [3] (setting [17]), 0.58. In addition, the Maltose/glucose ratio in experiment [3] (setting [18]) is given as 0.43; in experiment [3] (setting [19]), 0.70.
For the compound `O=C(O)CC(O)(CC(=O)O)C(=O)O` [Citric acid], in experiment [1], the “Maltose Activity (%)” value worked out at 23.4%.
For `CC[C@H](N)C(=O)O` [L-2-amino-n-butyric acid], the Maltose/glucose ratio in experiment [2] (setting [4]) was 0.76; in experiment [2] (setting [5]), 0.92.
As for `[Cl-].[K+]` [Potassium chloride], the Maltose/glucose ratio in experiment [2] (setting [6]) is 0.66; in experiment [2] (setting [7]), 0.71; in experiment [2] (setting [8]), 0.67; in experiment [2] (setting [9]), 0.64; in experiment [2] (setting [10]), 0.60; in experiment [2] (setting [11]) it was 0.60.
Regarding `NCCS(=O)(=O)O` [Taurine], the Maltose/glucose ratio worked out at 0.75 in experiment [2] (setting [4]); 0.81 in experiment [2] (setting [5]); 0.71 in experiment [2] (setting [6]); 0.72 in experiment [2] (setting [7]); 0.66 in experiment [2] (setting [8]); 0.68 in experiment [2] (setting [9]). Further, the Maltose/glucose ratio is 0.62 in experiment [2] (setting [10]) and 0.68 in experiment [2] (setting [11]).

The record behind these values is patent US7381540B2, “Composition for measuring glucose having improved substrate specificity” (Toyo Boseki Kabushiki Kaisha, priority 2005, dated 2008).
